Results from patent US20060160841A1, “Crystallization via high-shear transformation” (priority 2005, published 2006).

Test: Particle size D[90] of crystals before and after polymorph transformation
Assay type: physicochemical

Row | particle size D[90] (Example 1, needle-shaped crystals formed in vessel B on adding PG solution to water/PG anti-solvent at 10 to 20° C., before recirculation) | particle size D[90] (Example 1, small granular crystals after about 24 hours of recirculation through inline homogenization apparatus) | particle size D[90] (Example 2, small granular crystals after about 30 hours of recirculation by pump through outlet and inlet of vessel B) | particle size D[90] (Example 3, N-1 seeded, overhead homogenizer in transient vessel at 55-65° C., continuous transfer, filtered and dried) | SMILES
1 | greater than 160 μm | – | – | – | COc1ccc(-n2nc(C(N)=O)c3c2C(=O)N(c2ccc(N4CCCCC4=O)cc2)CC3)cc1 [H2-2, 1-(4-methoxyphenyl)-7-oxo-6-(4-(2-oxopiperidin-1-yl)phenyl)-4,5,6,7-tetrahydro-1H-pyrazolo[3,4-c]pyridine-3-carboxamide]
2 | – | less than 20 μm | less than 20 μm | less than 20 μm | COc1ccc(-n2nc(C(N)=O)c3c2C(=O)N(c2ccc(N4CCCCC4=O)cc2)CC3)cc1 [N-1, 1-(4-methoxyphenyl)-7-oxo-6-(4-(2-oxopiperidin-1-yl)phenyl)-4,5,6,7-tetrahydro-1H-pyrazolo[3,4-c]pyridine-3-carboxamide]
